For this experiment, the target named is T1, isolated pulmonary artery of the guinea pig (Cavia porcellus, UniProt O70526).
T1 sequence (O70526 1-372): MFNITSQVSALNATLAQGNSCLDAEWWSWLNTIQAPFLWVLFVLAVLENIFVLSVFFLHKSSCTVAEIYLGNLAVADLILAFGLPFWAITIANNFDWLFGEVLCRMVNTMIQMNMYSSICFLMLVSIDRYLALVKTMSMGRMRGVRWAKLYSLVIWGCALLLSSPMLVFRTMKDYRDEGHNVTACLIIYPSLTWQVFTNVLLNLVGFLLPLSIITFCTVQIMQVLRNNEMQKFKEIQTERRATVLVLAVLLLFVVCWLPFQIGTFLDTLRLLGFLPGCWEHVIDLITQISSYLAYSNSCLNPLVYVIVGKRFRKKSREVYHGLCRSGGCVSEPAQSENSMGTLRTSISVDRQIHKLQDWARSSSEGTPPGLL
The experiment in a line: bradykinin antagonist action on the isolated arteria pulmonalis of the guinea pig (decrease of bradykinin-induced contraction). As to the method: For testing the peptides according to the invention on the isolated arteria pulmonalis, guinea pigs (Dunkin Hartley) having a weight of 400-450 g are sacrificed by a blow to the back of the neck.
The thorax is opened and the arteria pulmonalis is carefully dissected out. The surrounding tissue is carefully removed and the arteria pulmonalis is cut spirally at an angle of 45°.
The vessel strip of 2.5 cm length and 3-4 mm width is fixed in a 10 ml capacity organ bath which is filled with Ringer solution.
95% O2 and 5% CO2 is bubbled through the solution, which is warmed to 37° C. The pH is 7.4 and the preload on the vessel strip is 1.0 g.
The isotonic contraction changes are detected using a lever arrangement and an HF modem (position sensor) from Hugo Sachs and recorded on a compensating recorder (BEC, Goerz Metrawatt SE 460).
After equilibration for 1 hour, the experiment is begun.
For the detection of a partial agonistic effect, the peptides are used in the doses 1×10^-5 -1×10^-3 mol/l.

The mark [1] stands for this setting: Table 1, vessel strip contracted with 2×10^-7 mol/l of bradykinin, peptides act 10 minutes, calculated from dose-effect curves.

Our source for the IC50 values is patent publication US5648333A, “Peptides having bradykinin antagonist action” (Hoechst Aktiengesellschaft, priority 1988, dated 1997).

Where a SMILES comes first, the peptide text is derived from it. [ ]: non-standard residue; d: D form. Oic = O=C(O)[C@@H]1C[C@@H]2CCCC[C@@H]2N1; Hyp = O=C(O)[C@@H]1C[C@@H](O)CN1; dTic = O=C(O)[C@H]1Cc2ccccc2CN1

For the setting “table by Example No., test not named there, values coincide with Table 1”, `N=C(N)NCCC[C@@H](N)C(=O)N[C@@H](CCCNC(=N)N)C(=O)N1CCC[C@H]1C(=O)N1C[C@H](O)C[C@H]1C(=O)NCC(=O)N[C@@H](Cc1cccs1)C(=O)N[C@@H](CO)C(=O)N1Cc2ccccc2C[C@@H]1C(=O)N1[C@H](C(=O)N[C@@H](CCCNC(=N)N)C(=O)O)C[C@@H]2CCCC[C@@H]21` [Example 59, H-(D)-Arg-Arg-Pro-Hyp-Gly-Thia-Ser-(D)-Tic-Oic-Arg-OH] came in with an IC50 of 5.4 nM.
On to `CC(C)C[C@H](NC(=O)CNC(=O)[C@@H]1C[C@@H](O)CN1C(=O)[C@@H]1CCCN1C(=O)[C@H](CCCNC(=N)N)NC(=O)[C@H](N)CCCNC(=N)N)C(=O)N[C@@H](CO)C(=O)N1Cc2ccccc2C[C@@H]1C(=O)N1[C@H](C(=O)N[C@@H](CCCNC(=N)N)C(=O)O)C[C@@H]2CCCC[C@@H]21` [Example 199, H-(D)-Arg-Arg-Pro-Hyp-Gly-Leu-Ser-(D)-Tic-Oic-Arg-OH] (H-[dR]RP[Hyp]GLS[dTic][Oic]R-OH), for which the IC50 under setting [1] was 5.9 nM.
On the same count and under the same terms, next, `N=C(N)NCCC[C@@H](N)C(=O)N[C@@H](CCCNC(=N)N)C(=O)N1CCC[C@H]1C(=O)N1C[C@H](O)C[C@H]1C(=O)NCC(=O)N[C@@H](CC1CCCCC1)C(=O)N[C@@H](CO)C(=O)N1Cc2ccccc2C[C@@H]1C(=O)N1[C@H](C(=O)N[C@@H](CCCNC(=N)N)C(=O)O)C[C@@H]2CCCC[C@@H]21` [Example 200, H-(D)-Arg-Arg-Pro-Hyp-Gly-Cha-Ser-(D)-Tic-Oic-Arg-OH]: 37 nM; `CC(C)(C)[C@H](NC(=O)CNC(=O)[C@@H]1C[C@@H](O)CN1C(=O)[C@@H]1CCCN1C(=O)[C@H](CCCNC(=N)N)NC(=O)[C@H](N)CCCNC(=N)N)C(=O)N[C@@H](CO)C(=O)N1Cc2ccccc2C[C@@H]1C(=O)N1[C@H](C(=O)N[C@@H](CCCNC(=N)N)C(=O)O)C[C@@H]2CCCC[C@@H]21` [Example 201, H-(D)-Arg-Arg-Pro-Hyp-Gly-Tbg-Ser-(D)-Tic-Oic-Arg-OH]: 6000 nM.

One may read the IC50 as the midpoint of a concentration-inhibition curve.
